Patent EP4230621A1, “SUBSTITUTED N-BENZOIC ACID URACILS, THEIR SALTS AND USE OF SAID COMPOUNDS AS HERBICIDAL AGENTS” (Bayer AG, priority 2022, dated 2023)

What was measured:
Type in all cases: in vivo
Abutilon theophrasti = experiment: Post-emergence herbicidal action against ABUTH (greenhouse pot test); details: visual rating after ca. 3 weeks vs untreated controls (100% = plants dead, 0% = like controls)
Text: (§1) Die folgenden Abkürzungen werden für die in den folgenden Tabellen aufgeführten Kultur- und Schadpflanzen verwendet: ABUTH: Abutilon theophrasti ALOMY: Alopecurus myosuroides AMARE: Amaranthus retroflexus BRSNS: Brassica napus DIGSA: Digitaria sanguinalis ECHCG: Echinochloa crus-galli GLXMA: Glycine max KCHSC: Kochia scoparia LOLRI: Lolium rigidum MATIN: Matricaria inodora ORYZA: Oryza sativa PHPBU: Pharbitis purpurea POLCO: Polygonum convolvulus SETVI: Setaria viridis VERPE: Veronica persica VIOTR: Viola tricolor TRZAS: Triticum aestivum ZEAMX: Zea mays
(§2) Samen von mono- bzw. dikotylen Unkrautpflanzen wurden in Kunststoff- oder Holzfasertöpfen in sandigem Lehmboden ausgelegt, mit Erde abgedeckt und im Gewächshaus unter kontrollierten Wachstumsbedingungen angezogen. 2 bis 3 Wochen nach der Aussaat wurden die Versuchspflanzen im Einblattstadium behandelt. Die in Form von benetzbaren Pulvern (WP) oder als Emulsionskonzentrate (EC) formulierten erfindungsgemäßen Verbindungen wurden dann als wässrige Suspension bzw. Emulsion unter Zusatz von 0,5% Additiv mit einer Wasseraufwandmenge von umgerechnet 600 1/ha auf die grünen Pflanzenteile gesprüht. Nach ca. 3 Wochen Standzeit der Versuchspflanzen im Gewächshaus, unter optimalen Wachstumsbedingungen, wurde die Wirkung der Präparate visuell im Vergleich zu unbehandelten Kontrollen bonitiert. Beispielsweise bedeutet 100% Wirkung = Pflanzen sind abgestorben, 0% Wirkung = wie Kontrollpflanzen.
(§3) In den nachstehenden Tabellen A1 bis A11 sind die Wirkungen ausgewählter Verbindungen der allgemeinen Formel (I) gemäß der Tabelle 1 auf verschiedene Schadpflanzen und einer Aufwandmenge entsprechend 80 g/ha und niedriger, die gemäß zuvor genannter Versuchsvorschrift erhalten wurden, dargestellt. Tabelle A1a: Nachauflaufwirkung bei 5 g/ha gegen ABUTH in %

Alopecurus myosuroides = experiment: Post-emergence herbicidal action against ALOMY (greenhouse pot test); details: visual rating after ca. 3 weeks vs untreated controls (100% = plants dead, 0% = like controls)
Text: as §1, §2, §3

Amaranthus retroflexus = experiment: Post-emergence herbicidal action against AMARE (greenhouse pot test); details: visual rating after ca. 3 weeks vs untreated controls (100% = plants dead, 0% = like controls)
Text: as §1, §2, §3

Digitaria sanguinalis = experiment: Post-emergence herbicidal action against DIGSA (greenhouse pot test); details: visual rating after ca. 3 weeks vs untreated controls (100% = plants dead, 0% = like controls)
Text: as §1, §2, §3

Lolium rigidum = experiment: Post-emergence herbicidal action against LOLRI (greenhouse pot test); details: 80 g/ha, visual rating after ca. 3 weeks vs untreated controls (100% = plants dead, 0% = like controls)
Text: as §1, §2, §3

Matricaria inodora = experiment: Post-emergence herbicidal action against MATIN (greenhouse pot test); details: for Nachauflaufwirkung gegen MATIN: visual rating after ca. 3 weeks vs untreated controls (100% = plants dead, 0% = like controls)
Text: as §1, §2, §3

Pharbitis purpurea = experiment: Post-emergence herbicidal action against PHBPU (greenhouse pot test)
Text: as §1, §2, §3

Polygonum convolvulus = experiment: Post-emergence herbicidal action against POLCO (greenhouse pot test)
Text: as §1, §2, §3

Setaria viridis = experiment: Post-emergence herbicidal action against SETVI (greenhouse pot test)
Text: as §1, §2, §3

Veronica persica = experiment: Post-emergence herbicidal action against VERPE (greenhouse pot test)
Text: as §1, §2, §3

Viola tricolor = experiment: Post-emergence herbicidal action against VIOTR (greenhouse pot test)
Text: as §1, §2, §3

Zea mays = experiment: Post-emergence action on crop plants, ZEAMX (greenhouse pot test); details: 5 g/ha, crop plant
Text: as §1
as §2, with “Kulturpflanzen” for “Unkrautpflanzen”
as §3, with “B1” for “A1”, “B3” for “A11”, “Kulturpflanzen” for “Schadpflanzen”, “20” for “80”, “B1a:” for “A1a:”, “ZEAMX” for “ABUTH”

Triticum aestivum = experiment: Post-emergence action on crop plants, TRZAS (greenhouse pot test); details: crop plant
Text: as §1
as §2, with “Kulturpflanzen” for “Unkrautpflanzen”
as §3, with “B1” for “A1”, “B3” for “A11”, “Kulturpflanzen” for “Schadpflanzen”, “20” for “80”, “B1a:” for “A1a:”, “ZEAMX” for “ABUTH”

Oryza sativa = experiment: Post-emergence action on crop plants, ORYZA (greenhouse pot test); details: 5 g/ha
Text: as §1
as §2, with “Kulturpflanzen” for “Unkrautpflanzen”
as §3, with “B1” for “A1”, “B3” for “A11”, “Kulturpflanzen” for “Schadpflanzen”, “20” for “80”, “B1a:” for “A1a:”, “ZEAMX” for “ABUTH”

CCOCCOC(=O)C(C)(C)OC(=O)c1cc(-n2c(=O)cc(C(F)(F)F)n(C)c2=O)c(F)cc1Cl [I.1-2]
Nachauflaufwirkung gegen ABUTH (Abutilon theophrasti; 5 g/ha): 100% | Nachauflaufwirkung gegen ABUTH (Abutilon theophrasti; 20 g/ha): 100% | Nachauflaufwirkung gegen ABUTH (Abutilon theophrasti; 80 g/ha): 100% | Nachauflaufwirkung gegen ALOMY (Alopecurus myosuroides; 20 g/ha): 90% | Nachauflaufwirkung gegen ALOMY (Alopecurus myosuroides; 80 g/ha): 100% | Nachauflaufwirkung gegen AMARE (Amaranthus retroflexus; 5 g/ha): 100% | Nachauflaufwirkung gegen AMARE (Amaranthus retroflexus; 20 g/ha): 100% | Nachauflaufwirkung gegen AMARE (Amaranthus retroflexus; 80 g/ha): 100% | Nachauflaufwirkung gegen DIGSA (Digitaria sanguinalis; 5 g/ha): 100% | Nachauflaufwirkung gegen DIGSA (Digitaria sanguinalis; 20 g/ha): 100% | Nachauflaufwirkung gegen DIGSA (Digitaria sanguinalis; 80 g/ha): 100% | Nachauflaufwirkung gegen LOLRI (Lolium rigidum): 100% | Nachauflaufwirkung gegen MATIN (Matricaria inodora; 5 g/ha): 100% | Nachauflaufwirkung gegen MATIN (Matricaria inodora; 20 g/ha): 100% | Nachauflaufwirkung gegen MATIN in % (Matricaria inodora; 80 g/ha): 100% | Nachauflaufwirkung gegen PHBPU in % (Pharbitis purpurea; 5 g/ha): 100% | Nachauflaufwirkung gegen PHBPU in % (Pharbitis purpurea; 20 g/ha): 100% | Nachauflaufwirkung gegen PHBPU in % (Pharbitis purpurea; 80 g/ha): 100% | Nachauflaufwirkung gegen POLCO in % (Polygonum convolvulus; 5 g/ha): 100% | Nachauflaufwirkung gegen POLCO in % (Polygonum convolvulus; 20 g/ha): 100% | Nachauflaufwirkung gegen POLCO in % (Polygonum convolvulus; 80 g/ha): 100% | Nachauflaufwirkung gegen SETVI in % (Setaria viridis; 5 g/ha): 100% | Nachauflaufwirkung gegen SETVI in % (Setaria viridis; 20 g/ha): 100% | Nachauflaufwirkung gegen SETVI in % (Setaria viridis; 80 g/ha): 100% | Nachauflaufwirkung gegen VERPE in % (Veronica persica; 5 g/ha): 100% | Nachauflaufwirkung gegen VERPE in % (Veronica persica; 20 g/ha): 100% | Nachauflaufwirkung gegen VERPE in % (Veronica persica; 80 g/ha): 100% | Nachauflaufwirkung gegen VIOTR in % (Viola tricolor; 5 g/ha): 100% | Nachauflaufwirkung gegen VIOTR in % (Viola tricolor; 20 g/ha): 100% | Nachauflaufwirkung gegen VIOTR in % (Viola tricolor; 80 g/ha): 100% | Nachauflaufwirkung gegen ZEAMX in % (Zea mays): 20% | Nachauflaufwirkung gegen TRZAS in % (Triticum aestivum; 5 g/ha): 10% | Nachauflaufwirkung gegen TRZAS in % (Triticum aestivum; 20 g/ha): 20% | Nachauflaufwirkung gegen ORYZA in % (Oryza sativa): 0%
